Measurements reported in ChEMBL document CHEMBL2311283, “Structural modifications to tetrahydropyridine-3-carboxylate esters en route to the discovery of M5-preferring muscarinic receptor orthosteric antagonists” (J Med Chem, 2013).

Columns and labels:
[1] = species on record: Homo sapiens; assay: Selectivity index, ratio of Ki for human M1 muscarinic receptor to Ki for human M5 muscarinic receptor
[2] = molecular target: T1, Muscarinic acetylcholine receptor M1 (Homo sapiens, UniProt P11229); assay: biochemical; type: cell-based, CHO-K1
T1 sequence (P11229 whole entry): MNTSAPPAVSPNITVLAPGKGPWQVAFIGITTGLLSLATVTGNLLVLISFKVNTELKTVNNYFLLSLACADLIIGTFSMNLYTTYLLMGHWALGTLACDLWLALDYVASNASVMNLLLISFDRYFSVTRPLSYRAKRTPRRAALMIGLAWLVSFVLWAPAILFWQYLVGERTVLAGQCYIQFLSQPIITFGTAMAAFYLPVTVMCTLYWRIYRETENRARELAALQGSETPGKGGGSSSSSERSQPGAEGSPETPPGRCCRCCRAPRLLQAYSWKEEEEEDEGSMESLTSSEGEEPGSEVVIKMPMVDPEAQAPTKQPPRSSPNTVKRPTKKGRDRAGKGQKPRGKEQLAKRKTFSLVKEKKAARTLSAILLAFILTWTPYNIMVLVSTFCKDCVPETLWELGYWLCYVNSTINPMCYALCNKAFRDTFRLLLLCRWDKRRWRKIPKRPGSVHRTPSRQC

[3] = molecular target: T2, Muscarinic acetylcholine receptor M5 (Homo sapiens, UniProt P08912); assay: Displacement of [3H]NMS from human M5 muscarinic receptor expressed in CHO-K1 cells; type: cell-based
T2 sequence (P08912 whole entry): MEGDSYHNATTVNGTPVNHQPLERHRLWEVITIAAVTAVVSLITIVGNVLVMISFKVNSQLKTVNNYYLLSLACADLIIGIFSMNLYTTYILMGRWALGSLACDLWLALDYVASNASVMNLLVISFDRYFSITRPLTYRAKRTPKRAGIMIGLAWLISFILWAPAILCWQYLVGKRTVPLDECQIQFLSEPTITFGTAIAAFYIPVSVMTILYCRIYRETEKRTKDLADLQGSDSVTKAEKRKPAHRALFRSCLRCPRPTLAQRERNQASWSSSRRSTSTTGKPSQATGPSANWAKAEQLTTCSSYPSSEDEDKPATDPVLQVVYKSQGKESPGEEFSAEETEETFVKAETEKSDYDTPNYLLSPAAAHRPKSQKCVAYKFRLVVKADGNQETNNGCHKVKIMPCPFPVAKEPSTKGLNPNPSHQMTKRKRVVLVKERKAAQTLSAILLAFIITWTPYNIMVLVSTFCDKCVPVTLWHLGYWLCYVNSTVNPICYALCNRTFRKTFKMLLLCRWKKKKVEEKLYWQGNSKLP

[4] = molecular target: Muscarinic acetylcholine receptor M3 (Homo sapiens, UniProt P20309); assay: Displacement of [3H]NMS from human M3 muscarinic receptor expressed in CHO-K1 cells; type: cell-based
Sequence of Muscarinic acetylcholine receptor M3 (P20309 whole entry): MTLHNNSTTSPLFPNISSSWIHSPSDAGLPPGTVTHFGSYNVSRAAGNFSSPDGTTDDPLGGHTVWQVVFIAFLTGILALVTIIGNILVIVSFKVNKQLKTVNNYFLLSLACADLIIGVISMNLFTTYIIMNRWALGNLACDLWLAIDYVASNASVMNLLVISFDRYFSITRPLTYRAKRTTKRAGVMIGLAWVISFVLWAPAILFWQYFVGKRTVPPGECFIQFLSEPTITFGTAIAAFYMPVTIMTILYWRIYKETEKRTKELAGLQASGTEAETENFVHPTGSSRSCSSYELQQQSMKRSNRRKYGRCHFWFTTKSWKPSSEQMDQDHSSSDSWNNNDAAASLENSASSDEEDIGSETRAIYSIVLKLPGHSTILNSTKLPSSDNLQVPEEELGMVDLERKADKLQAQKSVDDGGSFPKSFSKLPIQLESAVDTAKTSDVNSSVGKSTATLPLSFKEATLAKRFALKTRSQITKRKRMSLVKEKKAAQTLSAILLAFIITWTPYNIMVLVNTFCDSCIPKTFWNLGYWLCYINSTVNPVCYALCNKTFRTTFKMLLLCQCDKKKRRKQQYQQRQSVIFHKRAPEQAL

[5] = molecular target: T3, Muscarinic acetylcholine receptor M4 (Homo sapiens, UniProt P08173); assay: Displacement of [3H]NMS from human M4 muscarinic receptor expressed in CHO-K1 cells; type: cell-based
T3 sequence (P08173 whole entry): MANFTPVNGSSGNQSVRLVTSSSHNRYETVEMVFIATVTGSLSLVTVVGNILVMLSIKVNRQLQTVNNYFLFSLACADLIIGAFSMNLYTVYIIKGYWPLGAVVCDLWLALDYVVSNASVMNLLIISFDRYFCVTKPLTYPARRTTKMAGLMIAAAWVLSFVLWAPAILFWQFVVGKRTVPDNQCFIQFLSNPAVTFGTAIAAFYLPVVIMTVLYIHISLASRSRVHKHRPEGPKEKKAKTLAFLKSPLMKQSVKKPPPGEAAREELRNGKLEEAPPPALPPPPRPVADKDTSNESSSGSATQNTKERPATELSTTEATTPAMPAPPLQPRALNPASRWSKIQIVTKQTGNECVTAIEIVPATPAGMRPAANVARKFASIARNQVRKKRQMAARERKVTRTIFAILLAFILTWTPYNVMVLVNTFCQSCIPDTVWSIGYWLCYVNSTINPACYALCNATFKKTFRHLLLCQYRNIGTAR

[6] = species on record: Homo sapiens; assay: Selectivity index, ratio of Ki for human M4 muscarinic receptor to Ki for human M5 muscarinic receptor
[7] = species on record: Homo sapiens; assay: Selectivity index, ratio of Ki for human M3 muscarinic receptor to Ki for human M5 muscarinic receptor
[8] = molecular target: T4, Muscarinic acetylcholine receptor M2 (Homo sapiens, UniProt P08172); assay: Displacement of [3H]NMS from human M2 muscarinic receptor expressed in CHO-K1 cells; type: cell-based
T4 sequence (P08172 whole entry): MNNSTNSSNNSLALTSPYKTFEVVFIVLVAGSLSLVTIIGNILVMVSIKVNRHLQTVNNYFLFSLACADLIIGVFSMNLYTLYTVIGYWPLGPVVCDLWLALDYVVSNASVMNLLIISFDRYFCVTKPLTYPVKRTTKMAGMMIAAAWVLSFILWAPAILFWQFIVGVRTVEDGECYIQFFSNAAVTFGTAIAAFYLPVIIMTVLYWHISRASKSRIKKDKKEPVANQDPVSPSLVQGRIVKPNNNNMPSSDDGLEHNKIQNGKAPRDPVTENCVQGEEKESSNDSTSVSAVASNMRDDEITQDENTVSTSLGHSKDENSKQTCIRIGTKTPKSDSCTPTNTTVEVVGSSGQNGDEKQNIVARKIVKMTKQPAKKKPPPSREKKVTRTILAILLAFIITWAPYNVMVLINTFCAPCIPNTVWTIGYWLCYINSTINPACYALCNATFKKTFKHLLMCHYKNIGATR

| SMILES | Ratio Ki [1] | Ki [2] [nM] | Ki [3] [nM] | Ki [4] [nM] | Ki [5] [nM] | Ratio Ki [6] | Ratio Ki [7] | Ki [8] [nM] |
| --- | --- | --- | --- | --- | --- | --- | --- | --- |
| Cc1cccc(CCOC(=O)C2=C(c3ccccc3)CCN(C)C2)c1 | 3.1 | 880 | 280 | – | – | – | – | – |
| CCOC(=O)C1=C(c2ccccc2)CCN(CCc2ccc3c(c2)CCO3)C1 | – | > 100000 | > 100000 | – | – | – | – | – |
| CCOC(=O)C1=C(c2ccccc2)CCN(CCc2ccc(OC)cc2)C1 | – | > 100000 | > 100000 | – | – | – | – | – |
| CCOC(=O)C1=C(c2ccccc2)CCN(C2CCN(S(=O)(=O)c3ccc(C)cc3)CC2)C1 | – | > 100000 | > 100000 | – | – | – | – | – |
| CCN1CCC(c2ccccc2)=C(C(=O)OCCc2ccc3c(c2)OCO3)C1 | 0.7 | 200 | 280 | – | – | – | – | – |
| COc1cccc(C2=C(C(=O)OCCc3ccc4c(c3)CCO4)CN(C)CC2)c1 | 0.9 | 2430 | 2680 | – | – | – | – | – |
| CCN1CCC(c2ccccc2)=C(C(=O)OCCc2ccc([N+](=O)[O-])cc2)C1 | 1.8 | 810 | 440 | – | – | – | – | – |
| CN1CCC(c2ccccc2)=C(C(=O)OCCc2ccc(S(C)(=O)=O)cc2)C1 | 4.6 | 510 | 110 | – | – | – | – | – |
| CN1CCC(c2ccccc2)=C(C(=O)OCCCc2ccc3c(c2)CCO3)C1 | 1.5 | 920 | 630 | – | – | – | – | – |
| COc1ccc(CCCCOC(=O)C2=C(c3ccccc3)CCN(C)C2)cc1 | 4.7 | 5400 | 1160 | – | – | – | – | – |
| CCN1CCC(c2ccccc2)=C(C(=O)OCCc2ccc(S(C)(=O)=O)cc2)C1 | – | > 100000 | > 100000 | – | – | – | – | – |
| CCN1CCC(c2ccc(F)cc2)=C(C(=O)OCCc2ccc3c(c2)CCO3)C1 | 3.4 | 7900 | 2350 | – | – | – | – | – |
| COc1ccc(CCOC(=O)C2=C(c3cccc(F)c3)CCN(C)C2)cc1OC | 8.1 | 27000 | 3340 | > 100000 | > 100000 | > 30 | > 30 | > 100000 |
| CCCCN1CCC(c2ccccc2)=C(C(=O)OCCc2ccc3c(c2)CCO3)C1 | – | > 100000 | > 100000 | – | – | – | – | – |
| CN1CCC(c2cccc(F)c2)=C(C(=O)OCCc2ccc3c(c2)CCO3)C1 | – | > 100000 | > 100000 | – | – | – | – | – |
| CCN1CCC(c2ccccc2)=C(C(=O)OCCc2ccc3c(c2)CCO3)C1 | 6 | 1390 | 230 | 31100 | 10500 | 46 | 135 | > 100000 |
| CCOC(=O)C1=C(c2ccccc2)CCN(CCc2ccccc2)C1 | – | > 100000 | > 100000 | – | – | – | – | – |
| COc1ccc(CCOC(=O)C2=C(c3ccccc3)CN(C)CC2)cc1OC | – | 6160 | 2620 | – | – | – | – | – |
| CN1CCC(C(=O)OCCc2ccc3c(c2)CCO3)=C(c2ccccc2)C1 | – | 210 | 1140 | – | – | – | – | – |
| CCOC(=O)C1=C(c2ccccc2)CCN(C2CCN(C(=O)c3c(C)cccc3C)CC2)C1 | – | > 100000 | > 100000 | – | – | – | – | – |
| CCCN1CCC(c2ccccc2)=C(C(=O)OCCc2ccc3c(c2)CCO3)C1 | – | > 100000 | > 100000 | – | – | – | – | – |
| CCN1CCC(c2ccccc2)=C(C(=O)OCc2ccc(OC)cc2)C1 | 0.8 | 3060 | 3610 | – | – | – | – | – |
| CN1CCC(c2ccccc2)=C(C(=O)OCCc2ccc3c(c2)CCO3)C1 | 4.8 | 290 | 60 | 2840 | 1890 | 32 | 47 | 1170 |
| CN1CCC(c2ccccc2)=C(C(=O)OCCc2cccc(F)c2)C1 | 4.1 | 330 | 80 | – | – | – | – | – |

| SMILES | Ratio Ki [1] | Ki [2] [nM] | Ki [3] [nM] | Ki [4] [nM] | Ki [5] [nM] | Ratio Ki [6] | Ratio Ki [7] | Ki [8] [nM] |
| --- | --- | --- | --- | --- | --- | --- | --- | --- |
| COC(COC(=O)C1=C(c2ccccc2)CCN(C)C1)c1ccccc1 (stereo not given) | – | > 100000 | > 100000 | – | – | – | – | – |
| CCN1CCC(c2ccccc2)=C(C(=O)OCCCc2ccc(OC)cc2)C1 | – | – | – | 4070 | 11500 | – | – | 2030 |
| COc1ccc(CCOC(=O)C2=C(c3ccccc3OC)CCN(C)C2)cc1OC | – | > 100000 | > 100000 | – | – | – | – | – |
| CSc1ccc(CCOC(=O)C2=C(c3ccccc3)CCN(C)C2)cc1 | 1.8 | 340 | 190 | – | – | – | – | – |
| CN1CC=C(c2ccccc2C(=O)OCCc2ccc3c(c2)CCO3)CC1 | – | > 100000 | > 100000 | – | – | – | – | – |
| COc1ccc(OCCOC(=O)C2=C(c3ccccc3)CCN(C)C2)cc1 | 2 | 6190 | 3070 | – | – | – | – | – |
| CN1CCC(c2ccccc2)=C(C(=O)OCc2ccc3c(c2)CCO3)C1 | – | > 100000 | > 100000 | – | – | – | – | – |
| CCCCN1CCC(c2ccccc2)=C(C(=O)OCCc2ccc(OC)cc2)C1 | – | > 100000 | > 100000 | – | – | – | – | – |
| CCN1CCC(c2ccccc2)=C(C(=O)OCCc2ccsc2)C1 | 0.7 | 140 | 190 | – | – | – | – | – |
| COc1ccccc1C1=C(C(=O)OCCc2ccc3c(c2)CCO3)CN(C)CC1 | 3.5 | 8350 | 2410 | – | – | – | – | – |
| COc1cccc(C2=C(C(=O)OCCc3ccc(OC)c(OC)c3)CN(C)CC2)c1 | – | > 100000 | > 100000 | – | – | – | – | – |
| COc1ccc(CCOC(=O)C2=C(c3ccccc3)CCN(C)C2)cc1 | 0.7 | 20 | 30 | – | – | – | – | – |
| CN1CCC(c2ccccc2F)=C(C(=O)OCCc2ccc3c(c2)CCO3)C1 | 7 | 5270 | 740 | 4890 | 5740 | 7.8 | 6.6 | 540 |
| CCN1CCC(c2ccccc2)=C(C(=O)OCCc2cccc(OC)c2)C1 | 3.1 | 470 | 150 | – | – | – | – | – |
| CCOC(=O)C1=C(c2ccccc2)CCN(CCc2ccc3c(c2)OCO3)C1 | – | > 100000 | > 100000 | – | – | – | – | – |
| COc1ccc(CCOC(=O)C2=C(c3ccccc3)CCN(Cc3ccc(OC)cc3)C2)cc1 | – | > 100000 | > 100000 | – | – | – | – | – |
| CCN1CCC(c2ccccc2)=C(C(=O)OCc2ccc3c(c2)OCO3)C1 | 0.5 | 60 | 120 | – | – | – | – | – |
| CCN1CCC(c2ccccc2)=C(C(=O)OCCc2cc(OC)c(OC)c(OC)c2)C1 | – | > 100000 | > 100000 | – | – | – | – | – |
| COc1ccc(CCOC(=O)C2=C(c3ccccc3)CCN(C)C2)cc1C | 3.6 | 2700 | 740 | – | – | – | – | – |
| CCOC(=O)C1=C(c2ccccc2)CCN(C2CCN(C(=O)c3c(Cl)cccc3Cl)CC2)C1 | – | > 100000 | > 100000 | – | – | – | – | – |
| CCN1CCC(c2ccccc2)=C(C(=O)O[C@@H](C)Cc2ccc(OC)cc2)C1 | – | > 100000 | > 100000 | – | – | – | – | – |
| CCCN1CCC(c2ccccc2)=C(C(=O)OCCc2ccc(OC)cc2)C1 | – | > 100000 | > 100000 | – | – | – | – | – |
| COc1ccc(CCOC(=O)C2=C(c3ccccc3F)CCN(C)C2)cc1OC | – | > 100000 | > 100000 | – | – | – | – | – |
| CCN1CCC(c2ccccc2)=C(C(=O)OCCc2ccc(OC)c(F)c2)C1 | 4.8 | 11700 | 2460 | – | – | – | – | – |
